Test results as given in patent US20140057895A1, “INDAZOLE- AND PYRROLOPYRIDINE-DERIVATIVE AND PHARMACEUTICAL USE THEREOF” (priority 2011, published 2014).
Structures can show the parent of a compound that is named as a salt.

What was measured:
[1] = target: T1, 5-HT4 receptor (Cavia porcellus, UniProt O70528); assay: Test Example 1: Serotonin 4 (5-HT4) receptor binding assay, [3H]-GR113808, guinea pig striatum membranes (Table 96); settings: Guinea pig 5-HT4 receptor binding assay, [3H]-GR113808, striatum membranes; mean value of each group
T1 construct: striatum was isolated which was cryopreserved at −80° C. until use; from tissue; host or cells: guinea pig (Slc-Hartley) striatum membranes
T1 sequence (O70528 whole entry): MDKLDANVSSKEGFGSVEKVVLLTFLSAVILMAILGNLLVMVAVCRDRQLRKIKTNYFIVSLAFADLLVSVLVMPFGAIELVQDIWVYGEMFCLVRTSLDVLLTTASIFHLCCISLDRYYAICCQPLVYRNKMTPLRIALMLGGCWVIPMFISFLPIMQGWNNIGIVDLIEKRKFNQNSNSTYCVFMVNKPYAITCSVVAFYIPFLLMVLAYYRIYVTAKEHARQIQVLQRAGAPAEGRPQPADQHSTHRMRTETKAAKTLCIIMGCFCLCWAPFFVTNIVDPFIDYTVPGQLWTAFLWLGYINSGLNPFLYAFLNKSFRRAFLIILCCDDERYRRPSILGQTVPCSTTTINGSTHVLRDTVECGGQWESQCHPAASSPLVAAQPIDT
Description: The 5-HT4 receptor binding assay and preparations of receptor membrane preparations herein were carried out according to a method of Grossman et al. [see, British J. Pharmacol., (1993) 109, 618].
Slc-Hartley guinea pigs (body weight 300 g to 400 g) were decapitated to remove brain rapidly, and striatum was isolated which was cryopreserved at −80° C. until use. To the obtained tissues were added fifteen fold of Hepes buffer (50 mM, pH 7.4, 4° C.), and the mixture was homogenized by Teflon (trademark) homogenizer and centrifuged at 48,000×g (4° C.) for 15 minutes. To the resulting precipitate was added Hepes buffer (1 ml) to 30 mg by wet weight of tissues, and the mixture was suspended to give receptor membrane preparations.
To an assay tube were added 0.1 nM [^3H]-GR113808 {chemical name: [1-[2-(methylsulfonylamino)ethyl]-4-piperidinyl]methyl 1-methylindole-3-carboxylate}, receptor membrane preparations, and Hepes buffer (50 mM, pH 7.4, 4° C., 1 ml) containing test compounds or 30 μM serotonin; and the mixture was incubated at 37° C. for 30 minutes. On quenching the reaction, the mixture was rapidly filtered on whatman GF/B filter, which was presoaked in 0.1% polyethyleneimine for 1 hour, by using Brandel cell Harvester, and washed with ice-cooled 50 mM Tris-HCl (pH 7.7, 4 ml) three times. To the filter after filtration was added a liquid scintillator (Ecoscint), and then a radioactivity was determined by a liquid scintillation counter.
50% Inhibition concentrations (IC50) were determined from inhibition rates of test compounds to specific bindings which were obtained by subtracting nonspecific bindings from total binding amounts of [^3H]-GR113808.
(§1) In the following table, the compounds used in the test are shown in numbers which correspond to the Example numbers above where the preparations of the compounds are described.

[2] = target: T2, human 5-HT4b receptor (Homo sapiens, UniProt Q13639); assay: Test Example 2: Serotonin 4 (5-HT4) receptor agonist activity assay, cAMP HTRF in CHO cells (Table 97); assay type: cell-based; settings: cAMP in CHO cells expressing human 5-HT4b receptor, mean value; for Emax: 0.25 h, intrinsic activity, maximal activity of 5-HT defined as 100%, read-out: IA (%); for EC50: concentration showing 50% of IA
T2 construct: expressed in transfected cells; host or cells: CHO cells (G418 selection)
T2 sequence (Q13639 whole entry): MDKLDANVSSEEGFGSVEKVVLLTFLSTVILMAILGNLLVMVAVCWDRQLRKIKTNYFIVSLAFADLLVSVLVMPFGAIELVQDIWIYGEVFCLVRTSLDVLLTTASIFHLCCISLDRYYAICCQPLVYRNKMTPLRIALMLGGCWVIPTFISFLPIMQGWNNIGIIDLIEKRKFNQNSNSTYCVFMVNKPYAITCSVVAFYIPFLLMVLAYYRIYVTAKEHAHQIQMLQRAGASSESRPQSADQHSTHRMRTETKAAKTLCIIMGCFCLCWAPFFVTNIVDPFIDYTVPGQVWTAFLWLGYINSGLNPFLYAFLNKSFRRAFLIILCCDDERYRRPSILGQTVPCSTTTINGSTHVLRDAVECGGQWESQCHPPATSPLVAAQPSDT
Description: The cAMP measurement test used herein was carried out by using CISBIO HTRF (trademark) cAMP Hirange kit according to the manufacturer's instructions attached therewith.
CHO cells expressing human 5-HT4b receptor were incubated in Medium 1 [DMEM/1% NEAA, 1% penicillin/streptomycin (P/S), 0.2 mg/mL GENETICIN (G418), 10% FBS] at 37° C. under 5% CO2 condition. Then, the cells were put into Medium 2 (DMEM/10000 cut FBS, G-418, P/S, NEAA) for 1 to 2 hours, and collected by treating with trypsin containing EDTA. The collected cells were suspended in Assay Buffer 1 [100 mM Hanks/HEPES buffer (pH 7.4)], the suspended cells were mixed with the testing compound on 384-well plates, and the cells were incubated at 31° C. for 15 minutes. To the cells were added cAMP-cryptate solution and cAMP-d2 solution, and they were incubated at room temperature for 1 hour. Then, time-resolved fluorescence was measured by En Vision (excitation wavelength: 330 nm, fluorescence wavelength: 620/665 nm). An intrinsic activity of the compound [IA (%)] and a concentration showing 50% of IA [EC50 (nM)] were calculated from the obtained results. In particular, the intrinsic activity (IA) was calculated on the basis of the maximal activity of 5-HT (measured from 10^−11 M to 10^−7 M) defined as 100%.
as §1

SMILES | IC50 [1] | Emax [2] | EC50 [2]
CCc1nn(-c2noc(C3CCN(C4CCN(C(C)=O)CC4)CC3)n2)c2cc(F)ccc12 [Example 228, 1-{4-[3-(3-ethyl-6-fluoro-1H-indazol-1-yl)-1,2,4-oxadiazol-5-yl]-1,4′-bipiperidin-1′-yl}ethanone hydrochloride] | 28.7 nM | 66% | 8.2 nM
CCc1nn(-c2noc(C3CCN(CC4CCOCC4)CC3)n2)c2cc(F)ccc12 [Example 134, 3-ethyl-6-fluoro-1-{5-[1-(tetrahydro-2H-pyran-4-ylmethyl)piperidin-4-yl]-1,2,4-oxadiazol-3-yl}-1H-indazole] | 24.2 nM | 81% | 12.1 nM
CC(C)CN1CCC(c2nc(-n3nc(C(C)C)c4ccccc43)no2)CC1 [Example 98, 1-{5-[1-(2-methylpropyl)piperidin-4-yl]-1,2,4-oxadiazol-3-yl}-3-(propan-2-yl)-1H-indazole trifluoroacetate] | 32.1 nM | 110% | 15.5 nM
CCC(C)N1CCC(c2nc(-n3nc(C4CCC4)c4ccccc43)no2)CC1 (stereo not drawn) [Example 114, 1-{5-[1-(butan-2-yl)piperidin-4-yl]-1,2,4-oxadiazol-3-yl}-3-cyclobutyl-1H-indazole trifluoroacetate] | 26.2 nM | 68% | 53 nM
CCc1nn(-c2noc(C3CCN(CC4CC4)CC3)n2)c2ccccc12 [Example 112, 1-{5-[1-(cyclopropylmethyl)piperidin-4-yl]-1,2,4-oxadiazol-3-yl}-3-ethyl-1H-indazole trifluoroacetate] | 26.4 nM | 73% | 24.9 nM
CCCN1CCC(c2nc(-n3nc(C(C)C)c4ccccc43)no2)CC1 [Example 117, 3-(propan-2-yl)-1-[5-(1-propylpiperidin-4-yl)-1,2,4-oxadiazol-3-yl]-1H-indazole trifluoroacetate] | 25.9 nM | 83% | 29.5 nM
CCc1nn(-c2noc(C3CCN(CC4CCN(C(=O)OC)CC4)CC3)n2)c2cc(F)ccc12 [Example 171, methyl 4-({4-[3-(3-ethyl-6-fluoro-1H-indazol-1-yl)-1,2,4-oxadiazol-5-yl]piperidin-1-yl}methyl)piperidine-1-carboxylate] | 31.9 nM | 51% | 30.8 nM
CCc1nn(-c2noc(C3CCN(C4CCN(C(=O)OC)CC4)CC3)n2)c2cc(F)ccc12 [Example 230, methyl 4-[3-(3-ethyl-6-fluoro-1H-indazol-1-yl)-1,2,4-oxadiazol-5-yl]-1,4′-bipiperidine-1′-carboxylate] | 25.1 nM | 65% | 17.9 nM
CC(C)CN1CCC(c2nc(-n3nc(C4CCC4)c4ccccc43)no2)CC1 [Example 115, 3-cyclobutyl-1-{5-[1-{2-methylpropyl)piperidin-4-yl]-1,2,4-oxadiazol-3-yl}-1H-indazole trifluoroacetate] | 40.2 nM | 58% | 153 nM

The next compounds have a lower IC50 [1] than those just listed; values first:

IC50 [1] | Emax [2] | EC50 [2] | SMILES
< 20 nM | 84% | 6.2 nM | CCc1nn(-c2noc(C3CCN(CCCO)CC3)n2)c2ccccc12 [Example 261, 3-{4-[3-(3-ethyl-1H-indazol-1-yl)-1,2,4-oxadiazol-5-yl]piperidin-1-yl}propan-1-ol]
< 20 nM | 92% | 6.5 nM | CCc1nn(-c2noc(C3CCN(CCCOC)CC3)n2)c2cc(F)ccc12 [Example 92, 3-ethyl-6-fluoro-1-{5-[1-(3-methoxypropyl)piperidin-4-yl]-1,2,4-oxadiazol-3-yl}-1H-indazole]
< 20 nM | 67% | 22.4 nM | CCc1nn(-c2noc(C3CCN(C4CCOC4)CC3)n2)c2cc(F)ccc12 (stereo not drawn) [Example 138, 3-ethyl-6-fluoro-1-{5-[1-(tetrahydrofuran-3-yl)piperidin-4-yl]-1,2,4-oxadiazol-3-yl}-1H-indazole]
< 20 nM | 70% | 8.9 nM | CCc1nn(-c2noc(C3CCN(C(C)CC)CC3)n2)c2ccccc12 (stereo not drawn) [Example 101, 1-{5-[1-(butan-2-yl)piperidin-4-yl]-1,2,4-oxadiazol-3-yl}-3-ethyl-1H-indazole trifluoroacetate]
< 20 nM | 77% | 9.3 nM | CCc1nn(-c2noc(C3CCN(CCC4CCCO4)CC3)n2)c2cc(F)ccc12 (stereo not drawn) [Example 131, 3-ethyl-6-fluoro-1-(5-{1-[2-(tetrahydrofuran-2-yl)ethyl]piperidin-4-yl}-1,2,4-oxadiazol-3-yl)-1H-indazole]
< 20 nM | 49% | 31.4 nM | CCc1nn(-c2noc(C3CCN(C[C@@H]4CCN(C(=O)OCCF)C4)CC3)n2)c2ccccc12 [Example 195, 2-fluoroethyl (3S)-3-({4-[3-(3-ethyl-1H-indazol-1-yl)-1,2,4-oxadiazol-5-yl]piperidin-1-yl}methyl)pyrrolidine-1-carboxylate]
< 20 nM | 81% | 6 nM | CCc1nn(-c2noc(C3CCN(C(C)C)CC3)n2)c2cc(F)ccc12 [Example 143, 3-ethyl-6-fluoro-1-{5-[1-(propan-2-yl)piperidin-4-yl]-1,2,4-oxadiazol-3-yl}-1H-indazole]
21 nM | 80% | 9.4 nM | CCc1nn(-c2noc(C3CCN(CCCOC)CC3)n2)c2ccccc12 [Example 87, 3-ethyl-1-{5-[1-(3-methoxypropyl)piperidin-4-yl]-1,2,4-oxadiazol-3-yl}-1H-indazole trifluoroacetate]
< 20 nM | 48% | 60.7 nM | CCc1nn(-c2noc(C3CN(C4CCN(C(=O)OC)CC4)C3)n2)c2ccccc12 [Example 257, methyl 4-{3-[3-(3-ethyl-1H-indazol-1-yl)-1,2,4-oxadiazol-5-yl]azetidin-1-yl}piperidine-1-carboxylate]
< 20 nM | 38% | 4 nM | CCc1nn(-c2noc(C3CCN(C[C@@H]4CCCN4C(=O)OCCF)CC3)n2)c2c(F)cccc12 [Example 182, 2-fluoroethyl (2S)-2-({4-[3-(3-ethyl-7-fluoro-1H-indazol-1-yl)-1,2,4-oxadiazol-5-yl]piperidin-1-yl}methyl)pyrrolidine-1-carboxylate]
